Measurements as given in the supplement of paper PMC10307832.

Experiments:
Test in all cases: relative viability (nuclei count vs DMSO), 5 days (fraction); higher = more cells survive
Zebularine + AZD7762 = compound: O=c1ncccn1[C@@H]1O[C@H](CO)[C@@H](O)[C@H]1O [Zebularine] + NC(=O)Nc1cc(-c2cccc(F)c2)sc1C(=O)N[C@H]1CCCNC1 [AZD7762] (partner 0.2 µM)
Procedure, shortened: (§1)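 One day after seeding in 1536-well plates, lung cancer cell lines were dosed by pin tool. Dosing was either single-drug or a fixed anchor-drug dose plus five library-drug doses (not always all listed) in √10 steps. After 5 days, nuclei were stained in one fix-and-stain step and counted on 4× images, and relative viability is the nuclei count of treated wells over that of vehicle wells, given as the median of duplicate plates.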

BI-D1870 + Crizotinib = compound: CC(C)CCN1c2nc(Nc3cc(F)c(O)c(F)c3)ncc2N(C)C(=O)C1C [BI-D1870] + C[C@@H](Oc1cc(-c2cnn(C3CCNCC3)c2)cnc1N)c1c(Cl)ccc(F)c1Cl [Crizotinib] (partner 1 µM)
Procedure, shortened: as §1

BI-D1870 + Bortezomib = compound: CC(C)CCN1c2nc(Nc3cc(F)c(O)c(F)c3)ncc2N(C)C(=O)C1C [BI-D1870] + CC(C)C[C@H](NC(=O)[C@H](Cc1ccccc1)NC(=O)c1cnccn1)B(O)O [Bortezomib] (partner 0.002 µM)
Procedure, shortened: as §1

Zebularine + Bortezomib = compound: O=c1ncccn1[C@@H]1O[C@H](CO)[C@@H](O)[C@H]1O [Zebularine] + CC(C)C[C@H](NC(=O)[C@H](Cc1ccccc1)NC(=O)c1cnccn1)B(O)O [Bortezomib] (partner 0.002 µM)
Procedure, shortened: as §1

Cell Line | relative viability (Zebularine + AZD7762; first compound 1 µM) | relative viability (Zebularine + AZD7762; first compound 3.162 µM) | relative viability (Zebularine + AZD7762; first compound 10 µM) | relative viability (Zebularine + AZD7762; first compound 31.62 µM) | relative viability (Zebularine + AZD7762; first compound 100 µM) | relative viability (BI-D1870 + Crizotinib; first compound 0.04 µM) | relative viability (BI-D1870 + Crizotinib; first compound 0.1265 µM) | relative viability (BI-D1870 + Crizotinib; first compound 0.4 µM) | relative viability (BI-D1870 + Crizotinib; first compound 1.265 µM) | relative viability (BI-D1870 + Crizotinib; first compound 4 µM) | relative viability (BI-D1870 + Bortezomib; first compound 0.04 µM) | relative viability (BI-D1870 + Bortezomib; first compound 0.1265 µM) | relative viability (BI-D1870 + Bortezomib; first compound 0.4 µM) | relative viability (BI-D1870 + Bortezomib; first compound 1.265 µM) | relative viability (BI-D1870 + Bortezomib; first compound 4 µM) | relative viability (Zebularine + Bortezomib; first compound 1 µM) | relative viability (Zebularine + Bortezomib; first compound 3.162 µM) | relative viability (Zebularine + Bortezomib; first compound 10 µM) | relative viability (Zebularine + Bortezomib; first compound 31.62 µM) | relative viability (Zebularine + Bortezomib; first compound 100 µM)
NCI-H1648 | 0.587 | 0.71 | 0.543 | 0.615 | 0.6 |  |  |  |  |  |  |  |  |  |  |  |  |  |  | 
SK-MES-1 |  |  |  |  |  | 1.09 | 0.88 | 0.864 | 0.78 | 0.569 |  |  |  |  |  |  |  |  |  | 
HCC-366 | 0.336 | 0.264 | 0.219 | 0.463 | 0.162 | 0.694 | 0.485 | 0.471 | 0.933 | 0.378 | 1.1 | 0.911 | 1.05 | 1.1 | 0.317 | 1.05 | 0.976 | 0.292 | 0.685 | 0.116
201T | 0.674 | 0.594 | 0.426 | 0.691 | 0.607 | 1.02 | 1.02 | 1.04 | 1.07 | 1.03 | 1.14 | 1.06 | 1.07 | 1.1 | 1.06 | 1.13 | 1.1 | 1 | 1.15 | 1.11
HCC-827 | 0.221 | 0.206 | 0.197 | 0.197 | 0.179 | 0.97 | 0.912 | 0.95 | 0.947 | 0.821 | 1.14 | 1.1 | 0.985 | 1.03 | 1.12 | 1.12 | 1.06 | 0.875 | 0.773 | 0.506
NCI-H647 | 0.814 | 0.445 | 0.256 | 0.259 | 0.211 | 1.05 | 1.03 | 1.12 | 1.2 | 0.799 | 1.02 | 0.857 | 1.08 | 1.31 | 0.743 | 1.27 | 0.749 | 0.181 | 0.175 | 0.204
NCI-H2023 |  |  |  |  |  | 0.724 | 0.525 | 0.579 | 0.612 | 0.497 | 1.2 | 0.901 | 0.957 | 0.95 | 0.647 | 1.08 | 0.932 | 0.749 | 0.646 | 0.273
NCI-H520 |  |  |  |  |  | 1.05 | 0.687 | 0.766 | 0.824 | 0.476 | 0.618 | 0.521 | 0.525 | 0.542 | 0.309 | 0.831 | 0.449 | 0.337 | 0.231 | 0.224
RERF-LC-KJ | 1.11 | 1 | 0.896 | 1.13 | 0.959 | 0.892 | 0.853 | 0.847 | 0.857 | 0.792 | 1.12 | 0.997 | 1.13 | 1.25 | 0.946 | 1.11 | 0.996 | 0.92 | 1.36 | 1.25
A-427 | 0.753 | 0.628 | 0.487 | 0.501 | 0.287 | 0.992 | 0.86 | 0.825 | 1.11 | 0.857 | 1.08 | 1.01 | 0.936 | 1.08 | 0.968 | 1.12 | 0.899 | 0.665 | 0.381 | 0.247
